Results published in ChEMBL document CHEMBL2057064, “Activation of human RNase L by 2'- and 5'-O-methylphosphonate-modified oligoadenylates” (Bioorg Med Chem Lett, 2012).
Activity calls are given as the source filed them. The calls are words filed in the database; no cut-off is given here.

Biological target: T1, 2-5A-dependent ribonuclease (Homo sapiens) (UniProt Q05823)
T1 sequence (whole entry): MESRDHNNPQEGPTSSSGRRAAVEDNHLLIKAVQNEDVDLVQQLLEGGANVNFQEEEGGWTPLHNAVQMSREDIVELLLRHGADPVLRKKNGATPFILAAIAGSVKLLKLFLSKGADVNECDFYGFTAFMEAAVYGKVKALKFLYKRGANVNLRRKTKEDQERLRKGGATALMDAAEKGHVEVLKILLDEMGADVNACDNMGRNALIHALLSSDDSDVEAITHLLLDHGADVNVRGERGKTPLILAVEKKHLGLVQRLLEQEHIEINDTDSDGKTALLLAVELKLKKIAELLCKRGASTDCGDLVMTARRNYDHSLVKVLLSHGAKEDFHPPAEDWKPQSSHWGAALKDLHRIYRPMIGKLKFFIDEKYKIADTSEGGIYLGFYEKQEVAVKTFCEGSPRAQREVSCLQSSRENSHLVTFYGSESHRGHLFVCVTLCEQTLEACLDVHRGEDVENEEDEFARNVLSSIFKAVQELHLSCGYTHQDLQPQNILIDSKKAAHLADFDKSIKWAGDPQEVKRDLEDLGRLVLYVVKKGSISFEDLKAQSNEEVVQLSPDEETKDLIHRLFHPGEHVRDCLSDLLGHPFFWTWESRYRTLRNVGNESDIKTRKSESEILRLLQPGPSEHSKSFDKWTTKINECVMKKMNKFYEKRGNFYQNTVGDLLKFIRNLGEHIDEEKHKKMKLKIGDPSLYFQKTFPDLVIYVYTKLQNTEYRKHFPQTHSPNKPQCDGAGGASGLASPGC
Assay: Antagonist activity at human RNase L expressed in Escherichia coli BL21 (DE3) cells assessed as RNA cleavage using Cy5-C11-rUU-C7-BHQ2 as substrate by FRET assay in presence of natural activator pAAAA
Assay type: functional

inhibition, inactive:
Nc1ncnc2c1ncn2[C@@H]1O[C@H](COCP(=O)(O)O[C@@H]2[C@@H](O)[C@@H](COCP(=O)(O)O[C@@H]3[C@@H](O)[C@@H](COCP(=O)(O)O[C@@H]4[C@@H](O)[C@@H](COCP(=O)(O)O)O[C@H]4n4cnc5c(N)ncnc54)O[C@H]3n3cnc4c(N)ncnc43)O[C@H]2n2cnc3c(N)ncnc32)[C@H](O)[C@H]1O
Nc1ncnc2c1ncn2[C@@H]1O[C@H](COCP(=O)(O)O[C@@H]2[C@@H](O)[C@@H](COCP(=O)(O)O[C@@H]3[C@@H](O)[C@@H](COCP(=O)(O)O[C@@H]4[C@H](O)[C@@H](COP(=O)(O)O)O[C@H]4n4cnc5c(N)ncnc54)O[C@H]3n3cnc4c(N)ncnc43)O[C@H]2n2cnc3c(N)ncnc32)[C@H](O)[C@H]1O
Nc1ncnc2c1ncn2[C@@H]1O[C@H](COP(=O)(O)CO[C@H]2[C@H](O)[C@@H](COP(=O)(O)CO[C@H]3[C@H](O)[C@@H](COP(=O)(O)O[C@@H]4[C@H](O)[C@@H](COP(=O)(O)O)O[C@H]4n4cnc5c(N)ncnc54)O[C@H]3n3cnc4c(N)ncnc43)O[C@H]2n2cnc3c(N)ncnc32)[C@@H](O)[C@H]1O
Nc1ncnc2c1ncn2[C@@H]1O[C@H](COP(=O)(O)CO[C@@H]2[C@@H](O)[C@@H](COP(=O)(O)CO[C@@H]3[C@@H](O)[C@@H](COP(=O)(O)O[C@@H]4[C@H](O)[C@@H](COP(=O)(O)O)O[C@H]4n4cnc5c(N)ncnc54)O[C@H]3n3cnc4c(N)ncnc43)O[C@H]2n2cnc3c(N)ncnc32)[C@@H](O)[C@H]1O
Nc1ncnc2c1ncn2[C@@H]1O[C@H](COCP(=O)(O)O[C@@H]2[C@H](O)[C@@H](COCP(=O)(O)O[C@@H]3[C@H](O)[C@@H](COP(=O)(O)O[C@@H]4[C@H](O)[C@@H](COP(=O)(O)O)O[C@H]4n4cnc5c(N)ncnc54)O[C@H]3n3cnc4c(N)ncnc43)O[C@H]2n2cnc3c(N)ncnc32)[C@@H](O)[C@H]1O
Nc1ncnc2c1ncn2[C@@H]1O[C@H](COCP(=O)(O)O[C@@H]2[C@H](O)[C@@H](COP(=O)(O)O[C@@H]3[C@H](O)[C@@H](COCP(=O)(O)O[C@@H]4[C@H](O)[C@@H](COCP(=O)(O)O)O[C@H]4n4cnc5c(N)ncnc54)O[C@H]3n3cnc4c(N)ncnc43)O[C@H]2n2cnc3c(N)ncnc32)[C@@H](O)[C@H]1O
Nc1ncnc2c1ncn2[C@@H]1O[C@H](COP(=O)(O)O[C@@H]2[C@H](O)[C@@H](COP(=O)(O)CO[C@@H]3[C@@H](O)[C@@H](COP(=O)(O)CO[C@@H]4[C@@H](O)[C@@H](COP(=O)(O)O)O[C@H]4n4cnc5c(N)ncnc54)O[C@H]3n3cnc4c(N)ncnc43)O[C@H]2n2cnc3c(N)ncnc32)[C@@H](O)[C@H]1O
Nc1ncnc2c1ncn2[C@@H]1O[C@H](COCP(=O)(O)O[C@H]2[C@H](O)[C@@H](COCP(=O)(O)O[C@H]3[C@H](O)[C@@H](COCP(=O)(O)O[C@H]4[C@H](O)[C@@H](COCP(=O)(O)O)O[C@H]4n4cnc5c(N)ncnc54)O[C@H]3n3cnc4c(N)ncnc43)O[C@H]2n2cnc3c(N)ncnc32)[C@@H](O)[C@@H]1O
Nc1ncnc2c1ncn2[C@@H]1O[C@H](COCP(=O)(O)O[C@@H]2[C@H](O)[C@@H](COP(=O)(O)O[C@H]3[C@H](O)[C@@H](COCP(=O)(O)O[C@@H]4[C@H](O)[C@@H](COP(=O)(O)O)O[C@H]4n4cnc5c(N)ncnc54)O[C@H]3n3cnc4c(N)ncnc43)O[C@H]2n2cnc3c(N)ncnc32)[C@@H](O)[C@@H]1O
Nc1ncnc2c1ncn2[C@@H]1O[C@H](COCP(=O)(O)O[C@H]2[C@H](O)[C@@H](COCP(=O)(O)O[C@@H]3[C@H](O)[C@@H](COP(=O)(O)O[C@H]4[C@H](O)[C@@H](COCP(=O)(O)O)O[C@H]4n4cnc5c(N)ncnc54)O[C@H]3n3cnc4c(N)ncnc43)O[C@H]2n2cnc3c(N)ncnc32)[C@@H](O)[C@@H]1O
Nc1ncnc2c1ncn2[C@@H]1O[C@H](COCP(=O)(O)O[C@@H]2[C@H](O)[C@@H](COP(=O)(O)O[C@@H]3[C@@H](O)[C@@H](COCP(=O)(O)O[C@@H]4[C@@H](O)[C@@H](COCP(=O)(O)O)O[C@H]4n4cnc5c(N)ncnc54)O[C@H]3n3cnc4c(N)ncnc43)O[C@H]2n2cnc3c(N)ncnc32)[C@H](O)[C@H]1O
Nc1ncnc2c1ncn2[C@@H]1O[C@H](COP(=O)(O)O[C@@H]2[C@@H](O)[C@@H](COCP(=O)(O)O[C@@H]3[C@H](O)[C@@H](COP(=O)(O)O[C@@H]4[C@@H](O)[C@@H](COCP(=O)(O)O)O[C@H]4n4cnc5c(N)ncnc54)O[C@H]3n3cnc4c(N)ncnc43)O[C@H]2n2cnc3c(N)ncnc32)[C@@H](O)[C@H]1O
Nc1ncnc2c1ncn2[C@@H]1O[C@H](COCP(=O)(O)O[C@@H]2[C@H](O)[C@@H](COP(=O)(O)O[C@@H]3[C@H](O)[C@@H](COP(=O)(O)O[C@H]4[C@H](O)[C@@H](COCP(=O)(O)O)O[C@H]4n4cnc5c(N)ncnc54)O[C@H]3n3cnc4c(N)ncnc43)O[C@H]2n2cnc3c(N)ncnc32)[C@@H](O)[C@@H]1O
Nc1ncnc2c1ncn2[C@@H]1O[C@H](COCP(=O)(O)O[C@@H]2[C@H](O)[C@@H](COCP(=O)(O)O[C@@H]3[C@H](O)[C@@H](COCP(=O)(O)O[C@@H]4[C@H](O)[C@@H](COP(=O)(O)O)O[C@H]4n4cnc5c(N)ncnc54)O[C@H]3n3cnc4c(N)ncnc43)O[C@H]2n2cnc3c(N)ncnc32)[C@@H](O)[C@H]1O
Nc1ncnc2c1ncn2[C@@H]1O[C@H](COP(=O)(O)CO[C@H]2[C@H](O)[C@@H](COP(=O)(O)O[C@@H]3[C@H](O)[C@@H](COP(=O)(O)CO[C@H]4[C@H](O)[C@@H](COP(=O)(O)O)O[C@H]4n4cnc5c(N)ncnc54)O[C@H]3n3cnc4c(N)ncnc43)O[C@H]2n2cnc3c(N)ncnc32)[C@@H](O)[C@H]1O
Nc1ncnc2c1ncn2[C@@H]1O[C@H](COP(=O)(O)O[C@@H]2[C@H](O)[C@@H](COP(=O)(O)CO[C@@H]3[C@H](O)[C@@H](COP(=O)(O)CO[C@@H]4[C@H](O)[C@@H](COP(=O)(O)O)O[C@H]4n4cnc5c(N)ncnc54)O[C@H]3n3cnc4c(N)ncnc43)O[C@H]2n2cnc3c(N)ncnc32)[C@@H](O)[C@H]1O
Nc1ncnc2c1ncn2[C@@H]1O[C@H](COP(=O)(O)O[C@@H]2[C@H](O)[C@@H](COCP(=O)(O)O[C@@H]3[C@H](O)[C@@H](COP(=O)(O)O[C@@H]4[C@H](O)[C@@H](COCP(=O)(O)O)O[C@H]4n4cnc5c(N)ncnc54)O[C@H]3n3cnc4c(N)ncnc43)O[C@H]2n2cnc3c(N)ncnc32)[C@@H](O)[C@H]1O
Nc1ncnc2c1ncn2[C@@H]1O[C@H](COP(=O)(O)O[C@@H]2[C@H](O)[C@@H](COP(=O)(O)O[C@@H]3[C@H](O)[C@@H](COCP(=O)(O)O[C@@H]4[C@H](O)[C@@H](COCP(=O)(O)O)O[C@H]4n4cnc5c(N)ncnc54)O[C@H]3n3cnc4c(N)ncnc43)O[C@H]2n2cnc3c(N)ncnc32)[C@@H](O)[C@H]1O
Nc1ncnc2c1ncn2[C@@H]1O[C@H](COP(=O)(O)CO[C@@H]2[C@H](O)[C@@H](COP(=O)(O)CO[C@@H]3[C@H](O)[C@@H](COP(=O)(O)O[C@@H]4[C@H](O)[C@@H](COP(=O)(O)O)O[C@H]4n4cnc5c(N)ncnc54)O[C@H]3n3cnc4c(N)ncnc43)O[C@H]2n2cnc3c(N)ncnc32)[C@@H](O)[C@H]1O
Nc1ncnc2c1ncn2[C@@H]1O[C@H](COP(=O)(O)O[C@@H]2[C@H](O)[C@@H](COCP(=O)(O)O[C@@H]3[C@H](O)[C@@H](COCP(=O)(O)O[C@@H]4[C@H](O)[C@@H](COP(=O)(O)O)O[C@H]4n4cnc5c(N)ncnc54)O[C@H]3n3cnc4c(N)ncnc43)O[C@H]2n2cnc3c(N)ncnc32)[C@@H](O)[C@H]1O
Nc1ncnc2c1ncn2[C@@H]1O[C@H](COP(=O)(O)CO[C@@H]2[C@H](O)[C@@H](COP(=O)(O)CO[C@@H]3[C@H](O)[C@@H](COP(=O)(O)CO[C@@H]4[C@H](O)[C@@H](COP(=O)(O)O)O[C@H]4n4cnc5c(N)ncnc54)O[C@H]3n3cnc4c(N)ncnc43)O[C@H]2n2cnc3c(N)ncnc32)[C@@H](O)[C@H]1O
Nc1ncnc2c1ncn2[C@@H]1O[C@H](COCP(=O)(O)O[C@@H]2[C@H](O)[C@@H](COCP(=O)(O)O[C@@H]3[C@H](O)[C@@H](COCP(=O)(O)O[C@@H]4[C@H](O)[C@@H](COCP(=O)(O)O)O[C@H]4n4cnc5c(N)ncnc54)O[C@H]3n3cnc4c(N)ncnc43)O[C@H]2n2cnc3c(N)ncnc32)[C@@H](O)[C@H]1O
